# Experiments:
# [1] = Kinetic solubility of the compound; assay type: physicochemical; conditions: read-out: Kinetic_solubility
# [2] = biological target: T1, Chromatin remodeling regulator CECR2 (Homo sapiens, UniProt Q9BXF3); assay: Inhibition of recombinant human N-terminal His6-FLAG-tagged CECR2 expressed in Rosetta2 (DE3) pLysS cells after 60 mins by TR-FRET assay; assay type: cell-based
# [3] = biological target: Transcription initiation factor TFIID subunit 1-like (Homo sapiens, UniProt Q8IZX4); assay: Binding affinity to human DNA-tagged TAF1L bromodomain 2 (1523 to 1654 residues) expressed in bacterial expression system by BROMOscan assay
# [4] = biological target: T2, Transcription initiation factor TFIID subunit 1 (Homo sapiens, UniProt P21675); assay: Binding affinity to human DNA-tagged TAF1 bromodomain 2 (1521 to 1656 residues) expressed in bacterial expression system by BROMOscan assay
# [5] = biological target: T1, Chromatin remodeling regulator CECR2; assay: Binding affinity to ZsGreen fused-CECR2 bromodomain (M404 to H515 residues) (unknown origin) expressed in human U2OS-C433 cells co expressing (MDPKKKRKVDPKKRKVDPKKKRKV) assessed as induction of protein bromodomain localization from chromatin by measuring formation of large nuclear puncta by fluorescence based assay; assay type: cell-based
# [6] = biological target: T3, Bromodomain-containing protein 9 (Homo sapiens, UniProt Q9H8M2); assay: Inhibition of recombinant human N-terminal His6-FLAG-tagged BRD9 (unknown origin) expressed in Rosetta2 (DE3) pLysS cells after 60 mins by TR-FRET assay; assay type: cell-based
# T3 sequence (Q9H8M2 whole entry): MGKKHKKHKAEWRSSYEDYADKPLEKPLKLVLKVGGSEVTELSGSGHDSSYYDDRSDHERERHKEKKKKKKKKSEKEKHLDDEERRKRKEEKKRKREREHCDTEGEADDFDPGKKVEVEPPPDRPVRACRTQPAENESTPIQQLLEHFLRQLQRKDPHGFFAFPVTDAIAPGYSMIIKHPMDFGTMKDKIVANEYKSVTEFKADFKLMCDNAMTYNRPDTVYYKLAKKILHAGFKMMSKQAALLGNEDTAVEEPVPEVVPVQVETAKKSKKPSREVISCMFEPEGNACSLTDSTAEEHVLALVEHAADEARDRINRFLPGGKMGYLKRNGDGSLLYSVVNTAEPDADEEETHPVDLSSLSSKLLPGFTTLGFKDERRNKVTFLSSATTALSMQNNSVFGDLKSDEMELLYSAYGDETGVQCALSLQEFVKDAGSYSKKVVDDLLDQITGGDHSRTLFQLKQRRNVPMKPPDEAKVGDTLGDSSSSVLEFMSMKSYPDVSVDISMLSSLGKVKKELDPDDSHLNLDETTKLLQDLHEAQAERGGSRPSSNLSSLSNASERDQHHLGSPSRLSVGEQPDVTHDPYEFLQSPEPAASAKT
# [7] = biological target: T3, Bromodomain-containing protein 9; assay: Binding affinity to human DNA-tagged BRD9 isoform 1 (130 to 259 residues) expressed in bacterial expression system by BROMOscan assay
# [8] = biological target: T4, Bromodomain-containing protein 4 (Homo sapiens, UniProt O60885); assay: Inhibition of recombinant human N-terminal His6-FLAG-tagged BRD4 bromodomain 1 expressed in Rosetta2 (DE3) pLysS cells after 60 mins by TR-FRET assay; assay type: cell-based
# [9] = biological target: T5, Bromodomain-containing protein 7 (Homo sapiens, UniProt Q9NPI1); assay: Binding affinity to human DNA-tagged BRD7 (125 to 254 residues) expressed in mammalian expression system by BROMOscan assay
# T5 sequence (Q9NPI1 whole entry): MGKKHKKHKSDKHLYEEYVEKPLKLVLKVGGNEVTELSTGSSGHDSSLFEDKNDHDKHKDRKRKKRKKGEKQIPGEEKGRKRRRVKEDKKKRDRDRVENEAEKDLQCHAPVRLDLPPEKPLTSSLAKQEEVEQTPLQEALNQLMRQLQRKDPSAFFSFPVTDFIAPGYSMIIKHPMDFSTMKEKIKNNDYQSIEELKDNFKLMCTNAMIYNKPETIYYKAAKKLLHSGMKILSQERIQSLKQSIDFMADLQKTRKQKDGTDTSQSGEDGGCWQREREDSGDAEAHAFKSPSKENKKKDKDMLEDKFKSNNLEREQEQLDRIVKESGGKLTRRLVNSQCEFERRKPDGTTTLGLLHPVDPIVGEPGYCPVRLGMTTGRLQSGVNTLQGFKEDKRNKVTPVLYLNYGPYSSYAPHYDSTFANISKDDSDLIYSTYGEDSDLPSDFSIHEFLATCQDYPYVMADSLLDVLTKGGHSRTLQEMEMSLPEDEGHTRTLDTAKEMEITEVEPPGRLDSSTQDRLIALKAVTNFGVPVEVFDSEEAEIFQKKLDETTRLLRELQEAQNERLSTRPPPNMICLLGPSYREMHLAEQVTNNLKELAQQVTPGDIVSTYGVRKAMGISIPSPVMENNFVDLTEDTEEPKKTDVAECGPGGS
# [10] = biological target: T2, Transcription initiation factor TFIID subunit 1; assay: Inhibition of recombinant human N-terminal His6-FLAG-tagged TAF1 bromodomain 2 (unknown origin) expressed in Rosetta2 (DE3) pLysS cells after 60 mins by TR-FRET assay; assay type: cell-based
# [11] = biological target: T4, Bromodomain-containing protein 4; assay: Inhibition of recombinant human N-terminal His6-FLAG-tagged BRD4 bromodomain 2 (unknown origin) expressed in Rosetta2 (DE3) pLysS cells after 60 mins by TR-FRET assay; assay type: cell-based
# T1 sequence (Q9BXF3 whole entry, the tested form may be a part): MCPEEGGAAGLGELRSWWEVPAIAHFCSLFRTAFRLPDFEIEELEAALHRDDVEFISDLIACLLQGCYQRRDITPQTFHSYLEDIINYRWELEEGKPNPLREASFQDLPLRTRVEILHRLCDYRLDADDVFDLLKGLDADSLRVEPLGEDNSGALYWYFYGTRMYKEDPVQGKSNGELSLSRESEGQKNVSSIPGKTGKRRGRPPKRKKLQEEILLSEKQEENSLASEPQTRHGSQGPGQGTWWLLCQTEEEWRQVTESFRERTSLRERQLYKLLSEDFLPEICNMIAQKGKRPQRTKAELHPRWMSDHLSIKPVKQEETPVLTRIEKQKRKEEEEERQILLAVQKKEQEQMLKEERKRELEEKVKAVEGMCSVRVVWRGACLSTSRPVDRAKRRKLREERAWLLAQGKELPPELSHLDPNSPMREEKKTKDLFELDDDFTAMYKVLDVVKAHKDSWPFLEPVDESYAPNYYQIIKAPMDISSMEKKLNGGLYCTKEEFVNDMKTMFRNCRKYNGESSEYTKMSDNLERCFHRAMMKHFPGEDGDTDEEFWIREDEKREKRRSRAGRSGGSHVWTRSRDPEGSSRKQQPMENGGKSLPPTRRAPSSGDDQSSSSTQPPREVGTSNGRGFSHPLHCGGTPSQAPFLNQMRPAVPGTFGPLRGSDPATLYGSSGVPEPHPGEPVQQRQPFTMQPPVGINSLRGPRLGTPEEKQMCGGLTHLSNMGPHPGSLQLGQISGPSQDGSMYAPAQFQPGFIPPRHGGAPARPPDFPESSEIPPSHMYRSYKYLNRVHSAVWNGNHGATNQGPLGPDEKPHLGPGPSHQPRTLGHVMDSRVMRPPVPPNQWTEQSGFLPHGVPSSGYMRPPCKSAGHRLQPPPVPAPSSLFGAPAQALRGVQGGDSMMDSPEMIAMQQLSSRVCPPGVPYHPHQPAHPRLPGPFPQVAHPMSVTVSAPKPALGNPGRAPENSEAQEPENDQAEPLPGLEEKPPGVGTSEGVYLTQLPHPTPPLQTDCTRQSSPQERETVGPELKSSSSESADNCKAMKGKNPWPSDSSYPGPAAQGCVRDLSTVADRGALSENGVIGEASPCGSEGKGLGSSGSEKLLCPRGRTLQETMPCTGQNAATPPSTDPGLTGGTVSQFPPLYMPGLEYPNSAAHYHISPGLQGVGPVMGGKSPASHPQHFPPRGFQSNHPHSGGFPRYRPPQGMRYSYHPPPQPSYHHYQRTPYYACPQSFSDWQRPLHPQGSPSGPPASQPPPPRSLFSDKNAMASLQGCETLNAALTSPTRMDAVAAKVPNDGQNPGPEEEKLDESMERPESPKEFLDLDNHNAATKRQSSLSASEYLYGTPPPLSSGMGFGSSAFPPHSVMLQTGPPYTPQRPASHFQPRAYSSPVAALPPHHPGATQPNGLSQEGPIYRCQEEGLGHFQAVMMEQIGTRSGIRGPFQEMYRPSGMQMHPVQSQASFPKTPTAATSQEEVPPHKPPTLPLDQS
# T2 sequence (P21675 whole entry, the tested form may be a part): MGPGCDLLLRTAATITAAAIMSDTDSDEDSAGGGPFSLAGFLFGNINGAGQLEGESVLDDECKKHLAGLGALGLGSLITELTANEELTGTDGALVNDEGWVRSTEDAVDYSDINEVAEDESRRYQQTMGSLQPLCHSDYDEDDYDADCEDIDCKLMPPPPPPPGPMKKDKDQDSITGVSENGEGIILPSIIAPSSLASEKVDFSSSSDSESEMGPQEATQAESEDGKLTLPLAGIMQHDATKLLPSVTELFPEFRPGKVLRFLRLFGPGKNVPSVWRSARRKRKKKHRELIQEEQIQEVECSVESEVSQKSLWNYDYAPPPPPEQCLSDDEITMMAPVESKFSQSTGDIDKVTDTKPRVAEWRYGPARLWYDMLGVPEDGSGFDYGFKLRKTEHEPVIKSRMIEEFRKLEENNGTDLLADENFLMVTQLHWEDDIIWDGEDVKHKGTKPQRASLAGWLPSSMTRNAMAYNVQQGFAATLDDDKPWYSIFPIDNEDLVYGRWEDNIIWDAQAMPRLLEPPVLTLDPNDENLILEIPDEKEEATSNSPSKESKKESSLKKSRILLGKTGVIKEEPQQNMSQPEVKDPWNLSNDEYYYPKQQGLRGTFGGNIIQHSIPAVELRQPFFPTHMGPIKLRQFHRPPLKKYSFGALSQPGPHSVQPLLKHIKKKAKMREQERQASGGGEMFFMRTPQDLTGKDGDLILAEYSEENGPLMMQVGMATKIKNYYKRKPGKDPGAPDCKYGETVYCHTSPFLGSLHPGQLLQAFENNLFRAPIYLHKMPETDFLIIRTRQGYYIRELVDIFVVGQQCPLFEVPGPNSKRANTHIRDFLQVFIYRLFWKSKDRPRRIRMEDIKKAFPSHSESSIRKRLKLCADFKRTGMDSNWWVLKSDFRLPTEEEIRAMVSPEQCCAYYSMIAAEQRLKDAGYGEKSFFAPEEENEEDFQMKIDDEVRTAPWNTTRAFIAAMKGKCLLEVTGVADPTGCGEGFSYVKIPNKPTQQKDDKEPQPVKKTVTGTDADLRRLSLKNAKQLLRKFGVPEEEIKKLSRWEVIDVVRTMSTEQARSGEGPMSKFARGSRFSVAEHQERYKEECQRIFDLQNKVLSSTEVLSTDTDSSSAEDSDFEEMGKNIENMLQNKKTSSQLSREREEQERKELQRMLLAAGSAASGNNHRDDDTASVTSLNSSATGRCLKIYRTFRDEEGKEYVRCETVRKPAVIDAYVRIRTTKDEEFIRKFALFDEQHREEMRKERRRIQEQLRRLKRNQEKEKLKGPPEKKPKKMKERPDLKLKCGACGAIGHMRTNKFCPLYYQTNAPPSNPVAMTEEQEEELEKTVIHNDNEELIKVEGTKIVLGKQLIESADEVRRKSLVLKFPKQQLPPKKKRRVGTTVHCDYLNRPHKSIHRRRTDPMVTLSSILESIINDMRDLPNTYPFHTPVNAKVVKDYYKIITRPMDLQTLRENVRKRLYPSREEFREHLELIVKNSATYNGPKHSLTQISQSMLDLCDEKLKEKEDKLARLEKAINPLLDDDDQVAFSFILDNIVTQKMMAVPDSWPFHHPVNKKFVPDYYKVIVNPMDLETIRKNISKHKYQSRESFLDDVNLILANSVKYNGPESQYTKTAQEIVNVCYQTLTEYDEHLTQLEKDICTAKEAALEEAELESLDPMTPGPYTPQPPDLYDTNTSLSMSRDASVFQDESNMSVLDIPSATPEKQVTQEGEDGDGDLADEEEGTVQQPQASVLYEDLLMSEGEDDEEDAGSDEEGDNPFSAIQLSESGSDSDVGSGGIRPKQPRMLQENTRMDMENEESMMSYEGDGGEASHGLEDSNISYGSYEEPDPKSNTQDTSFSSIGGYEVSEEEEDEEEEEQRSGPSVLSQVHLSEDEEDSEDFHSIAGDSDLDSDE
SMILES,solubility kinetic [1] [µM],IC50 [2] [µM],Kd [3] [µM],Kd [4] [µM],EC50 [5] [µM],IC50 [6] [µM],Kd [7] [µM],IC50 [8] [µM],Kd [9] [µM],IC50 [10] [µM],IC50 [11] [µM]
C=CCn1cc(C(=O)N(C)C2CCN(c3cc(-c4cccc(OC)c4)ncn3)CC2)c2cc[nH]c2c1=O,122,0.016,2.4,0.62,0.37,1.6,2,> 20,1.1,1.4,–
CN1CCC(NC(=O)c2cn(C)c(=O)c3[nH]ccc23)CC1,–,1.1,–,–,–,2.4,–,> 20,–,0.13,> 20
C=CCn1cc(C(=O)N(C)C2CCN(c3cc(-c4ccccc4OC)ncn3)CC2)c2cc[nH]c2c1=O,–,0.045,–,–,–,2.6,–,> 20,–,2.6,–
C=CCn1cc(C(=O)N(C)C2CCN(c3cc(OC)ncn3)CC2)c2cc[nH]c2c1=O,–,0.13,–,–,–,8.5,–,> 20,–,2.8,–
C=CCn1cc(C(=O)N(C)C2CCN(c3ccncn3)CC2)c2cc[nH]c2c1=O,–,0.24,–,–,–,5,–,> 20,–,2.1,–
C=CCn1cc(C(=O)N(C)C2CCN(c3cc(C(F)(F)F)ncn3)CC2)c2cc[nH]c2c1=O,–,0.2,–,–,–,11.4,–,> 20,–,3.4,–
C=CCn1cc(C(=O)N(C)C2CCN([C@@H](C)c3ccccc3)CC2)c2cc(C)[nH]c2c1=O,–,0.19,–,–,–,4.4,–,> 20,–,11.9,> 20
C=CCn1cc(C(=O)N(C)C2CCN(c3cc(C4CC4)nc(C)n3)CC2)c2cc[nH]c2c1=O,–,0.052,–,–,–,3.5,–,> 20,–,3.3,–
C=CCn1cc(C(=O)N(C)C2CCN(c3cc(OC)nc(C)n3)CC2)c2cc[nH]c2c1=O,–,0.071,–,–,–,5.8,–,> 20,–,2.7,–
C=CCn1cc(C(=O)N(C)C2CCN(c3cc(C4CC4)ncn3)CC2)c2cc[nH]c2c1=O,–,0.083,–,–,–,6.1,–,> 20,–,1.8,–
C=CCn1cc(C(=O)N(C)C2CCN(c3cc(C)nc(C)n3)CC2)c2cc[nH]c2c1=O,–,0.093,–,–,–,7.6,–,> 20,–,5.1,–
C=CCn1cc(C(=O)N(C)C2CCN([C@H](C)c3ccccc3)CC2)c2cc(C)[nH]c2c1=O,–,0.2,–,–,–,3.5,–,> 20,–,16.5,> 20
C=CCn1cc(C(=O)N(C)C2CCN(c3cc(C(C)(C)C)ncn3)CC2)c2cc[nH]c2c1=O,–,0.055,–,–,–,5.7,–,> 20,–,2.8,–
CC(c1ccccc1)N1CCC(N(C)C(=O)c2cn(C)c(=O)c3[nH]ccc23)CC1 (racemic),–,0.33,–,–,–,11,–,> 20,–,3.6,6.1
CC(C)N1CCC(N(C)C(=O)c2cn(C)c(=O)c3[nH]ccc23)CC1,–,0.5,–,–,–,17.8,–,> 20,–,8.4,19.2
C=CCn1cc(C(=O)N(C)C2CCN(C(C)c3ccccc3)CC2)c2cc[nH]c2c1=O (racemic),–,0.5,–,–,–,> 20,–,> 20,–,16.1,> 20
C=CCn1cc(C(=O)N(C)C2CCN(c3cc(-c4ccco4)ncn3)CC2)c2cc[nH]c2c1=O,–,0.045,–,–,–,3.3,–,> 20,–,2.5,–
CN1CCC(N(C)C(=O)c2cn(C)c(=O)c3[nH]ccc23)CC1,–,0.78,–,–,–,> 20,–,> 20,–,6.1,17.2
C=CCn1cc(C(=O)N(C)C2CCN(c3cc(-c4ccccc4F)ncn3)CC2)c2cc[nH]c2c1=O,–,0.044,–,–,–,1.5,–,> 20,–,2.5,–
C=CCn1cc(C(=O)N(C)C2CCN(c3cc(-c4ccccc4C)ncn3)CC2)c2cc[nH]c2c1=O,–,0.046,–,–,–,1.7,–,> 20,–,2.4,–
C=CCn1cc(C(=O)N(C)C2CCN(c3cc(-n4cccn4)ncn3)CC2)c2cc[nH]c2c1=O,–,0.059,–,–,–,6.9,–,> 20,–,3.4,–
